Laboratory results published in publication PMC8850458, “The AUTOTAC chemical biology platform for targeted protein degradation via the autophagy-lysosome system” (Nature Communications, 2022).
Several values for one entry are separate records, joined by “and”; a condition that tells them apart may be missing. Identical values can stand only once. Like-named read-outs stand apart in the source and are kept apart here. Values belong to the molecule of their own block, whether it stands above or below them.

Legend:
Ub^+ and p62^+ puncta = assay: ICC of Ub (FK2) and p62 puncta in HeLa cells; type: cell-based; conditions: Fig. 4i
Experimental: Fig. 4 Targeted autophagic delivery and degradation of misfolded protein cargoes using AUTOTACs with aggregate-binding warhead. a A model illustrating the mode of action of aggregate-targeting AUTOTAC. b Chemical structures of PBA-1105, PBA-1106, Anle138b-F105 and PBA-1105b. c In vitro p62 oligomerization assay in HEK293T cells incubated with the indicated compounds in (b). d WB in HEK293T cells treated with MG132 (1 μM, 24 h), HCQ (10 μM, 24 h), PBA-1105, YTK-1105, and PBA (1 μM, 24 h). e Identical to (d), but with Anle-F105. f ICC of HeLa cells treated with HCQ (10 μM, 24 h), MG132 (2 μM, 18 h) or both in the presence of PBA-1106, YOK-1106 or PBA (1 μM, 24 h). Scale bar, 10 μm. g Quantification of (f) (n = 3, 50 cells). h ICC of HeLa cells treated with Anle138b-F105 (1 μM, 24 h). Scale bar, 10 μm. i Quantification of (h) (n = 3, 50 cells). When indicated, n = 3 biologically independent experiments each counting 50 cells. Data are presented as mean values ± SD where relevant. P-values (from a two-sided unpaired t test): ***P < 7.66E−05. Source data are provided with this paper.
Cells were cultured on coverslips coated with poly-L-lysine (Sigma) to observe cellular localization of proteins. Using 4% paraformaldehyde in PBS (pH 7.4), the cells were fixed for 15 min at room temperature and washed three times for 5 min with PBS. After fixing, the cells were permeabilized with 0.5% Triton X-100 in PBS solution for 15 min and washed three times with PBS for 5 min. The cells were blocked containing 2% BSA in PBS solution for 1 h at room temperature. Subsequently, the cells were incubated with primary antibody diluted in 2% BSA/PBS solution overnight at 4 °C, followed by washing the cells three times for 10 min with PBS and incubated with Alexa Fluor-conjugated secondary antibody diluted in 2% BSA/PBS for 30 min at room temperature. Using a DAPI-containing mounting medium (Vector Laboratories), the coverslips were mounted on glass slides. Confocal images were taken by laser scanning confocal microscope 510 Meta (Zeiss) and analyzed by Zeiss LSM Image Browser (ver. 4.2.0.121). […] Quantification results are shown as mean ± S.D. or S.E.M. of three independent experiments

tauP301L = tauP301L (Homo sapiens, UniProt P10636, P618L); assay: WB degradation of tauP301L in SH-SY5Y-tauP301L cells; type: cell-based; conditions: densitometry, dosage degradation, SH-SY5Y-Tau-TiFC; for Tau normalized to GAPDH and control, AVG %: average of N=3
Experimental: (§1) Adherent cells were washed with phosphate-buffered saline (PBS) and cell pellets were lysed in SDS-based sample buffer (277.8 mM Tris-HCI, pH 6.8, 4.4% LDS, 44.4% (v/v) glycerol) containing beta-mercaptoethanol. Alternatively, cell pellets or protein supernatants were lysed in 5X Laemmli sample buffer. Whole-cell lysates were separated using SDS-PAGE, and transferred onto polyvinyllidene difluoride membranes at 100 V for 2 h at 4 °C. The membrane was incubated with a blocking solution consisting 4% skim milk in PBS solution for 30 min at room temperature and incubated with primary antibodies overnight, followed by incubation with host-specific HRP-conjugated secondary antibodies (1:10000 dilution). For signal detection, the membrane was developed with a mixture of ECL solution (Thermo Fisher Scientific) using X-ray films. Densitometry of developed bands was measured and analyzed with ImageJ (NIH, Bethesda).

[1] = target: T1, methionine aminopeptidase 2 (MetAP2) (Homo sapiens, UniProt P50579); assay: Western blot degradation of MetAP2; type: cell-based; conditions: 293T, 24 h
T1 construct: Targeted autophagic degradation of endogenous oncoproteins by AUTOTAC; endogenous in cells; host or cells: HEK293 / HEK293T, U87-MG
Experimental: as §1

ACHN cells = assay: WST-based cell viability assay in ACHN cells; conditions: for WST assay viability, AVG % / WST assay raw reading / WST assay viability relative to con = 100: ACHN; for WST assay raw reading / WST assay viability relative to con = 100: duplicates
LNCaP cells [2] = conditions: human
in vitro = conditions: human
LNCaP cells [3] = assay: WST-based cell viability assay in LNCaP cells; conditions: LNcaP, duplicates
[4] = test system: U87-MG glioblastoma cells; assay: Wound healing assay in U87-MG cells; type: cell-based; design: wound area, single experiment / wound area, Average: unit not given here; conditions: Fig. S4j
Experimental: To analyze cell migration in two dimensions, U-87 MG or ACHN cells were plated to a monolayer. Cells were scratched with a sterile 10 μl pipette tip and the debris was removed using medium. Cells were treated with compounds and incubated for different time to monitor cell behavior. Photographs were obtained using a microscope at different time point.

[5] = WST assay viability relative to con = 100
[6] = 4h, relative to 0h, con 63.7844
[7] = 12h, relative to 0h, con 49.0497
[8] = 24h, relative to 0h, con 11.2855

Sequence of tauP301L (P10636 1-441 isoform P10636-8 P301L): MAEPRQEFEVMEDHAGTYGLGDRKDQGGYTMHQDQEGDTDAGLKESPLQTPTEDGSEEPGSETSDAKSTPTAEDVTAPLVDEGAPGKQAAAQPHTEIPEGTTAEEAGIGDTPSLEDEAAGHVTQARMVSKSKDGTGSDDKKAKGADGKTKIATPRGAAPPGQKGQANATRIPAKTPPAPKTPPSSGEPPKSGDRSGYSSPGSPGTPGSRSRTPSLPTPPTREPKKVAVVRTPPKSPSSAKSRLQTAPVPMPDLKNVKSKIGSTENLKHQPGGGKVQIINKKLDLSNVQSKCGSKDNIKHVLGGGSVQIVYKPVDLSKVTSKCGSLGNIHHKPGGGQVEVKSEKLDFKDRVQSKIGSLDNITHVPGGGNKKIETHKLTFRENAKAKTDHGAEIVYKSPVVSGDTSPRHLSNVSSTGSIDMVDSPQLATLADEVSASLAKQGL
T1 sequence (P50579 whole entry): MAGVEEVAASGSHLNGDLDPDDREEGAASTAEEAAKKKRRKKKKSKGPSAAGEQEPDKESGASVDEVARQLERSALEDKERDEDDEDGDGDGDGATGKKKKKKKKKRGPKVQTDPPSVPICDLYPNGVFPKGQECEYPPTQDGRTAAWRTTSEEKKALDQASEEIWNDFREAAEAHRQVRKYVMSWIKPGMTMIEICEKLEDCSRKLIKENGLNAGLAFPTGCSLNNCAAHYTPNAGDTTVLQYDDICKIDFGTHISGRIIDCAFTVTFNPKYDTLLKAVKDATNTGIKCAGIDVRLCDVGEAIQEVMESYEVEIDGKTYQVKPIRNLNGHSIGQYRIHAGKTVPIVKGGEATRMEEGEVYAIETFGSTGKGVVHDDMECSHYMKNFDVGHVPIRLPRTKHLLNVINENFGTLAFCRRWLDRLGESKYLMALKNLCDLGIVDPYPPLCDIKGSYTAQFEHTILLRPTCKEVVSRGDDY

Tau normalized to GAPDH and control, AVG % (tauP301L; 1 nM): 89.5946%
Tau normalized to GAPDH and control, AVG % (tauP301L; 10 nM): 39.4372%
Tau normalized to GAPDH and control, AVG % (tauP301L; 100 nM): 27.9865%
Tau normalized to GAPDH and control, AVG % (tauP301L; 1 uM): 22.4452%
Tau normalized to GAPDH and control, AVG % (tauP301L; 2.5uM): 20.2653%
remaining activity at 2.5 µM (tauP301L; 2.5uM, read-out: (Tau normalized to GAPDH) normalized to control, percentage (individual replicates N=1, N=2, N=3)): 14.5%
Tau normalized to GAPDH and control, AVG % (tauP301L; 5uM): 9.605%
remaining activity at 5 µM (tauP301L; 5uM, read-out: (Tau normalized to GAPDH) normalized to control, percentage (individual replicates N=1, N=2, N=3)): 9.88%
Tau normalized to GAPDH and control, AVG % (tauP301L; 10uM): 11.8682%
remaining activity at 10 µM (tauP301L; 10uM, read-out: (Tau normalized to GAPDH) normalized to control, percentage (individual replicates N=1, N=2, N=3)): 10.3%
Structure (SMILES): Fc1ccc(COc2cccc(CNCCOCCOCCNc3cccc(-c4cc(-c5ccc6c(c5)OCO6)n[nH]4)c3)c2)cc1 [Anle.-F105]
FK2 (Ub) / p62 colocalization, AVG of cells per 50 cells (Ub^+ and p62^+ puncta; con vs Anle.-F105): 44.6667
FK2 (Ub) / p62 colocalization, percentage AVG (Ub^+ and p62^+ puncta; con vs Anle.-F105): 89.3333 percentage
FK2 (Ub) / p62 colocalization, cells counted per 50 cells (individual replicates) (Ub^+ and p62^+ puncta; con vs Anle.-F105, count out of 50 cells): 44 and 42 and 48

Structure (SMILES): CO[C@@H]1[C@H](OC(=O)/C=C/C=C/C=C/C=C/C(=O)O)CC[C@]2(CO2)[C@H]1[C@@]1(C)O[C@@H]1CC=C(C)C [Fumagillin, reference compound]
MetAP2 normalized to control, AVG % ([1]; 2.5uM): 147.616%
MetAP2 normalized to control, AVG % ([1]; 10uM): 145.983%

Structure (SMILES): Oc1ccc(-c2c(-c3ccccc3)nn3c(C(F)(F)F)cc(C(F)(F)F)nc23)cc1 [PHTPP, reference compound]
IC50 (ACHN cells; ACHN cells, WST-based viability assay, read-out: cytotoxicity IC50): 18 µM
WST assay viability, AVG % (ACHN cells; 0.01uM): 98.8656%
WST assay raw reading (ACHN cells; 0.01uM): 1.014 and 0.955
WST assay viability relative to con = 100 (ACHN cells; 0.01uM): 102.269 and 95.4624
WST assay viability, AVG % (ACHN cells; 0.1uM): 95.5201%
WST assay raw reading (ACHN cells; 0.1uM): 0.951 and 0.96
WST assay viability relative to con = 100 (ACHN cells; 0.1uM): 95.001 and 96.0392
WST assay viability, AVG % (ACHN cells; 1uM): 90.0981%
WST assay raw reading (ACHN cells; 1uM): 0.95 and 0.867
WST assay viability relative to con = 100 (ACHN cells; 1uM): 94.8856 and 85.3105
WST assay viability, AVG % (ACHN cells; 10uM): 86.1757%
WST assay raw reading (ACHN cells; 10uM): 0.866 and 0.883
WST assay viability relative to con = 100 (ACHN cells; 10uM): 85.1952 and 87.1563
WST assay viability, AVG % (ACHN cells; 50uM): 10.8441%
WST assay raw reading (ACHN cells; 50uM): 0.239 and 0.204
WST assay viability relative to con = 100 (ACHN cells; 50uM): 12.8629 and 8.825
WST assay viability, AVG % (ACHN cells; 100uM): 2.365%
WST assay raw reading (ACHN cells; 100uM): 0.151 and 0.145
WST assay viability relative to con = 100 (ACHN cells; 100uM): 2.711 and 2.019

Structure (SMILES): C=CC1(C)OC(=O)N(c2cc(Cl)cc(Cl)c2)C1=O (stereo not shown) [Vinclozolin]
WST assay viability relative to con = 100 (LNCaP cells [2]; 0.01 µM): 103.812
WST assay viability relative to con = 100 (LNCaP cells [2]; 0.1 µM): 103.962
WST assay viability relative to con = 100 (LNCaP cells [2]; 1 µM): 97.4197
WST assay viability relative to con = 100 (LNCaP cells [2]; 10 µM): 103.712
WST assay viability relative to con = 100 (LNCaP cells [2]; 50 µM): 108.507
WST assay viability relative to con = 100 (LNCaP cells [2]; 100 µM): 100.466
viability at 0.01 µM (in vitro; [5]): 96.4%
viability at 0.1 µM (in vitro; [5]): 91.3%
viability at 1 µM (in vitro; [5]): 89.8%
viability at 10 µM (in vitro; [5]): 92.8%
viability at 50 µM (in vitro; [5]): 94.7%
viability at 100 µM (in vitro; [5]): 111%
viability at 0.01 µM (in vitro; WST assay viability, AVG %): 100%
viability at 0.1 µM (in vitro; WST assay viability, AVG %): 97.6%
viability at 1 µM (in vitro; WST assay viability, AVG %): 93.6%
viability at 10 µM (in vitro; WST assay viability, AVG %): 98.3%
viability at 50 µM (in vitro; WST assay viability, AVG %): 102%
viability at 100 µM (in vitro; WST assay viability, AVG %): 106%
WST assay raw reading (LNCaP cells [3]; 0.01uM): 2.034 and 2.182
WST assay raw reading (LNCaP cells [3]; 0.1uM): 1.931 and 2.185
WST assay raw reading (LNCaP cells [3]; 1uM): 1.901 and 2.054
WST assay raw reading (LNCaP cells [3]; 10uM): 1.962 and 2.18
WST assay raw reading (LNCaP cells [3]; 50uM): 1.999 and 2.276
WST assay raw reading (LNCaP cells [3]; 100uM): 2.333 and 2.115

Structure (SMILES): COC1C(OC(=O)C=CC=CC=CC=CC(=O)NCCOCCOCCNCc2cccc(OCc3ccccc3)c2)CCC2(CO2)C1C1(C)OC1CC=C(C)C (stereo not shown) [fuma-105]
wound area, single experiment ([4]; 0h): 1322200 and 1143900 and 1293400
wound area, Average % ([4]; 0h (reference = 100)): 100%
wound area, Average ([4]; 0h, con 1278325): 1253167
wound area, single experiment ([4]; 4h): 1229909 and 1112400 and 1025300
wound area, Average ([4]; 4h, con 815372): 1122536
wound area, Average % [4, 6]: 89.576%
wound area, single experiment ([4]; 12h): 999235 and 1073250 and 992572
wound area, Average ([4]; 12h, con 627015): 1021686
wound area, Average % [4, 7]: 81.5283%
wound area, single experiment ([4]; 24h): 562341 and 671624 and 616277
wound area, Average ([4]; 24h, con 144265): 616747
wound area, Average % [4, 8]: 49.2151%

Structure (SMILES): COC1C(OC(=O)C=CC=CC=CC=CC(=O)O)CCC2(CO2)C1C1(C)OC1CC=C(C)C (stereo not shown) [fuma]
wound area, single experiment ([4]; 0h): 1171666 and 1405232 and 1275616
wound area, Average % ([4]; 0h (reference = 100)): 100%
wound area, Average ([4]; 0h, con 1278325): 1284171
wound area, single experiment ([4]; 4h): 1044299 and 1099925 and 1033344
wound area, Average ([4]; 4h, con 815372): 1059189
wound area, Average % [4, 6]: 82.4804%
wound area, single experiment ([4]; 12h): 806233 and 764432
wound area, Average ([4]; 12h, con 627015): 778366
wound area, Average % [4, 7]: 60.6123%
wound area, single experiment ([4]; 24h): 429520 and 509220
wound area, Average ([4]; 24h, con 144265): 482653
wound area, Average % [4, 8]: 37.5848%
